Laboratory results: patent publication US7547690B2, “Compounds for the treatment of Hepatitis C” (Bristol-Myers Squibb Company, priority 2007, dated 2009)
Read-outs that look alike come from different tables or passages of the source.

What was measured:
HCV NS5B = molecular target: T1, HCV NS5B (Hepatitis C virus genotype 1b, UniProt Q9WMX2); assay: HCV NS5B RdRp enzyme assay (standard / modified); assay type: biochemical; details: HCV RdRp genotype 1b; standard or modified assay not specified; read-out: IC50
T1 construct: The protein was expressed with an 18 amino acid C-terminal truncation to enhance the solubility; made in house; host or cells: E. coli BL21(DE3)
Method: HCV NS5B RdRp cloning, expression, and purification. The cDNA encoding the NS5B protein of HCV, genotype 1b, was cloned into the pET21a expression vector. The protein was expressed with an 18 amino acid C-terminal truncation to enhance the solubility. The E. coli competent cell line BL21(DE3) was used for expression of the protein. Cultures were grown at 37° C. for ˜4 hours until the cultures reached an optical density of 2.0 at 600 nm. The cultures were cooled to 20° C. and induced with 1 mM IPTG. Fresh ampicillin was added to a final concentration of 50 μg/ml and the cells were grown overnight at 20° C.
Cell pellets (3 L) were lysed for purification to yield 15-24 mgs of purified NS5B. The lysis buffer consisted of 20 mM Tris-HCl, pH 7.4, 500 mM NaCl, 0.5% triton X-100, 1 mM DTT, 1 mM EDTA, 20% glycerol, 0.5 mg/ml lysozyme, 10 mM MgCl2, 15 ug/ml deoxyribonuclease I, and Complete TM protease inhibitor tablets (Roche). After addition of the lysis buffer, frozen cell pellets were resuspended using a tissue homogenizer. To reduce the viscosity of the sample, aliquots of the lysate were sonicated on ice using a microtip attached to a Branson sonicator. The sonicated lysate was centrifuged at 100,000×g for 1 hr at 4° C. and filtered through a 0.2 μm filter unit (Corning).
The protein was purified using two sequential chromatography steps: Heparin sepharose CL-6B and polyU sepharose 4B (Pharmacia). The chromatography buffers were identical to the lysis buffer but contained no lysozyme, deoxyribonuclease I, MgCl2 or protease inhibitor and the NaCl concentration of the buffer was adjusted according to the requirements for charging the protein onto the column. Each column was eluted with a NaCl gradient which varied in length from 5-50 column volumes depending on the column type. After the final chromatography step, the resulting purity of the enzyme is >90% based on SDS-PAGE analysis. The enzyme was aliquoted and stored at −80° C.
Standard HCV NS5B RdRp enzyme assay. HCV RdRp genotype 1b assays were run in a final volume of 60 μl in 96 well plates (Corning 3600). The assay buffer is composed of 20 mM Hepes, pH 7.5, 2.5 mM KCl, 2.5 mM MgCl2, 1 mM DTT, 1.6 U RNAse inhibitor (Promega N2515), 0.01 mg/ml BSA (Sigma B6917), and 2% glycerol. All compounds were serially diluted (3-fold) in DMSO and diluted further in water such that the final concentration of DMSO in the assay was 2%. HCV RdRp genotype 1b enzyme was used at a final concentration of 28 nM. A polyA template was used at 6 nM, and a biotinylated oligo-dT12 primer was used at 180 nM final concentration. Template was obtained commercially (Amersham 27-4110). Biotinylated primer was prepared by Sigma Genosys. 3H-UTP was used at 0.6 μCi (0.29 μM total UTP). Reactions were initiated by the addition of enzyme, incubated at 30 ° C. for 60 min, and stopped by adding 25 μl of 50 mM EDTA containing SPA beads (4 μg/μl, Amersham RPNQ 0007). Plates were read on a Packard Top Count NXT after >1 hr incubation at room temperature.
Modified HCV NS5B RdRp enzyme assay. A modified enzyme assay was performed essentially as described for the standard enzyme assay except for the following: The biotinylated oligo dT12 primer was precaptured on streptavidin-coated SPA beads by mixing primer and beads in assay buffer and incubating at room temperature for one hour. Unbound primer was removed after centrifugation. The primer-bound beads were resuspended in 20 mM Hepes buffer, pH 7.5 and used in the assay at final concentrations of 20 nM primer and 0.67 μg/μl beads. Order of addition in the assay: enzyme (1.75 nM) was added to diluted compound followed by the addition of a mixture of template (0.36 nM), 3H-UTP (0.6 μCi, 0.29 μM), and primer-bound beads, to initiate the reaction; concentrations given are final. Reactions were allowed to proceed for 4 hours at 30° C.
IC50 values for compounds were determined using seven different [I]. […]

HCV replicon cells = assay: HCV replicon FRET / luciferase assay; assay type: cell-based; details: 50% reduction in FRET or luciferase activity in HCV replicon cells, read-out: EC50
Method: FRET Assay Preparation. The HCV FRET screening assay was performed in 96-well cell culture plates. The FRET peptide (Anaspec, Inc.) (Taliani et al., Anal. Biochem. 1996, 240, 60-67) contains a fluorescence donor, EDANS, near one end of the peptide and an acceptor, DABCYL, near the other end. The fluorescence of the peptide is quenched by […] resonance energy transfer (RET) between the donor and the acceptor, but as the NS3 protease cleaves the peptide the products are released from RET quenching and the fluorescence of the donor becomes apparent. The assay reagent was made as follows: 5× cell Luciferase cell culture lysis reagent from Promega (#E153A) diluted to 1× with dH2O, NaCl added to 150 mM final, the FRET peptide diluted to 20 μM final from a 2 mM stock.
To prepare plates, HCV replicon cells, with or without a Renilla luciferase reporter gene, were trypsinized and plated in a 96-well plate with titrated test compounds added in columns 3 through 12; columns 1 and 2 contained a control compound (HCV control inhibitor), and the bottom row contained cells with DMSO only. The plates were then placed in a CO2 incubator at 37° C.
Assays. Subsequent to addition of the test compounds described above (FRET Assay Preparation), at various times the plate was removed and Alamar blue solution (Trek Diagnostics, #00-100) was added to measure cellular toxicity. After reading in a Cytoflour 4000 instrument (PE Biosystems), plates were rinsed with PBS and then used for FRET assay by the addition of 30 ul of the FRET peptide assay reagent described above (FRET Assay Preparation) per well. The plate was then placed into the Cytoflour 4000 instrument which had been set to 340 excite/490 emission, automatic mode for up to 20 cycles and the plate read in a kinetic mode. Typically, the signal to noise using an endpoint analysis after the reads was at least three-fold. Alternatively, after Alamar blue reading, plates were rinsed with PBS, then used for luciferase assay using the Promega Dual-Glo Luciferase Assay System or the Promega EnduRen Live Cell Substrate assay.
Compound analysis was performed by quantification of the relative HCV replicon inhibition and the relative cytotoxicity values. To calculate cytoxicity values, the average Alamar Blue fluorescence signals from the control wells were set as 100% non-toxic. The individual signals in each of the compound test wells were then divided by the average control signal and multiplied by 100% to determine […]. To calculate the HCV replicon inhibition values, an average background value was obtained from the two wells containing the highest amount of HCV control inhibitor at the end of the assay period. These numbers were similar to those obtained from naïve Huh-7 cells. The background numbers were then subtracted from the average signal obtained from the control wells and this number was used as 100% activity. The individual signals in each of the compound test wells were then divided by the averaged control values after background subtraction and multiplied by 100% to determine percent activity. EC50 values were calculated as the concentration which caused a 50% reduction in FRET or luciferase activity. The two numbers generated for the compound plate, percent cytoxicity and percent activity, were used to determine compounds of interest for further analysis.

T1 sequence (Q9WMX2 2420-2992): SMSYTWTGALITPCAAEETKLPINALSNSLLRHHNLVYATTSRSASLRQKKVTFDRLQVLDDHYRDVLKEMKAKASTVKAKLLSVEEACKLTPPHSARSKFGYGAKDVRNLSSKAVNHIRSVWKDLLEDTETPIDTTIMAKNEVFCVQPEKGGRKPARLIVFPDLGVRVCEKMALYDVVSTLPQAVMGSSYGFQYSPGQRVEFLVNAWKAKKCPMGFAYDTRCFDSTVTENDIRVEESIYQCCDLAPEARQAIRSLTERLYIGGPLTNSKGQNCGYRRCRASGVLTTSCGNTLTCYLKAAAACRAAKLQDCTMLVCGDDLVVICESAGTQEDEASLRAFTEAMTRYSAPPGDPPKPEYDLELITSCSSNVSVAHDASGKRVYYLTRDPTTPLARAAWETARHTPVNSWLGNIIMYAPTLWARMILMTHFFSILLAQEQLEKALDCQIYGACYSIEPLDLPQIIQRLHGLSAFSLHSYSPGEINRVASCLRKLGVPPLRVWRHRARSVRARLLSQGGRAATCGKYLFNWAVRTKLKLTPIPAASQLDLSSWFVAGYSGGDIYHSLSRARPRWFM

SMILES | IC50 (HCV NS5B) [nM] | EC50 (HCV replicon cells; Hepatitis C virus) [nM] | EC50 (HCV replicon cells) [nM]
COc1ccc2c(c1)C1CC1(C(=O)N1C3CN(C)CC1CN(C(C)=O)C3)Cn1c-2c(C2CCCCC2)c2ccc(C(=O)NS(=O)(=O)N(C)C)cc21 (centres unmarked) | 2.4 to 500 | 2.4 to 500 | 
COc1ccc2c(c1)C1CC1(C(=O)N1C[C@H]3C[C@@H]1CN3C(=O)OC(C)(C)C)Cn1c-2c(C2CCCCC2)c2ccc(C(=O)NS(=O)(=O)N3CCC3)cc21 (some centres unmarked) | 2.4 to 500 | 2.4 to 500 | 
COc1ccc2c(c1)C1CC1(C(=O)N1C3CCCC1CN(C)C3)Cn1c-2c(C2CCCCC2)c2ccc(C(=O)NS(=O)(=O)C(C)C)cc21 (centres unmarked) | 2.4 to 500 | 2.4 to 500 | 
COc1ccc2c(c1)C1CC1(C(=O)N1[C@@H]3CNC[C@H]1C3)Cn1c-2c(C2CCCCC2)c2ccc(C(=O)NS(=O)(=O)N(C)C)cc21 (some centres unmarked) | 2.4 to 500 | 2.4 to 500 | 
COc1ccc2c(c1)C1CC1(C(=O)N1C3COC[C@@H]1CN(C)C3)Cn1c-2c(C2CCCCC2)c2ccc(C(=O)NS(=O)(=O)C3CCCCC3)cc21 (some centres unmarked) | 2.4 to 500 | 2.4 to 500 | 
COc1ccc2c(c1)C1CC1(C(=O)N1C3CC1CN(Cc1ccccc1)C3)Cn1c-2c(C2CCCCC2)c2ccc(C(=O)NS(=O)(=O)C3CCCC3)cc21 (centres unmarked) | 2.4 to 500 | 2.4 to 500 | 
CCCS(=O)(=O)NC(=O)c1ccc2c(C3CCCCC3)c3n(c2c1)CC1(C(=O)N2C4CC2CN(C)C4)CC1c1cc(OC)ccc1-3 (centres unmarked) | 2.4 to 500 | 2.4 to 500 | 
COc1ccc2c(c1)C1CC1(C(=O)N1C3CC1CN(Cc1ccccc1)C3)Cn1c-2c(C2CCCCC2)c2ccc(C(=O)NS(=O)(=O)C3CCC3)cc21 (centres unmarked) | 2.4 to 500 | 500 to 5000 | 
CCN1C[C@H]2C[C@@H]1CN2C(=O)C12CC1c1cc(OC)ccc1-c1c(C3CCCCC3)c3ccc(C(=O)NS(=O)(=O)C4CC4)cc3n1C2 (some centres unmarked) [drawing 43] | < 20 | 2.4 to 500 | 
CCN(CC)S(=O)(=O)NC(=O)c1ccc2c(C3CCCCC3)c3n(c2c1)CC1(C(=O)N2C4CC2CN(C)C4)CC1c1cc(OC)ccc1-3 (centres unmarked) | 2.4 to 500 | 2.4 to 500 | 
CCS(=O)(=O)NC(=O)c1ccc2c(C3CCCCC3)c3n(c2c1)CC1(C(=O)N2C4CCCC2CN(C)C4)CC1c1cc(OC)ccc1-3 (centres unmarked) | 2.4 to 500 | 2.4 to 500 | 
COc1ccc2c(c1)C1CC1(C(=O)N1C3COC[C@@H]1CN(C)C3)Cn1c-2c(C2CCCCC2)c2ccc(C(=O)NS(=O)(=O)CC(C)C)cc21 (some centres unmarked) | 2.4 to 500 | 2.4 to 500 | 
COc1ccc2c(c1)C1CC1(C(=O)N1[C@@H]3C[C@H]1CN(C)C3)Cn1c-2c(C2CCCCC2)c2ccc(C(=O)NS(N)(=O)=O)cc21 (some centres unmarked) | 2.4 to 500 | 2.4 to 500 | 
COc1ccc2c(c1)C1CC1(C(=O)N1C[C@@H]3C[C@H]1CN3C)Cn1c-2c(C2CCCCC2)c2ccc(C(=O)NS(=O)(=O)C3CC3)cc21 (some centres unmarked) [drawing 72] | < 20 | 2.4 to 500 | 
COc1ccc2c(c1)C1CC1(C(=O)N1[C@@H]3C[C@H]1CN(C)C3)Cn1c-2c(C2CCCCC2)c2ccc(C(=O)NS(=O)(=O)C3CC3)cc21 (some centres unmarked) | 2.4 to 500 | 2.4 to 500 | 
COc1ccc2c(c1)C1CC1(C(=O)N1CC3CCC1CN3)Cn1c-2c(C2CCCCC2)c2ccc(C(=O)NS(=O)(=O)C3CCCCC3)cc21 (centres unmarked) | 2.4 to 500 | > 1000 | 
COc1ccc2c(c1)C1CC1(C(=O)N1C[C@@H]3C[C@H]1CN3C(=O)OC(C)(C)C)Cn1c-2c(C2CCCCC2)c2ccc(C(=O)NS(=O)(=O)N(C)C)cc21 (some centres unmarked) | 2.4 to 500 | 2.4 to 500 | 
COc1ccc2c(c1)C1CC1(NC(=O)N1CC3CN(Cc4ccccc4)CC(C1)N3Cc1ccccc1)Cn1c-2c(C2CCCCC2)c2ccc(C(=O)NS(=O)(=O)N(C)C)cc21 (centres unmarked) | 500 to 5000 |  | 
COc1ccc2c(c1)C1CC1(C(=O)N1C[C@H]3C[C@@H]1CN3C(=O)OC(C)(C)C)Cn1c-2c(C2CCCCC2)c2ccc(C(=O)NS(=O)(=O)N(C)C)cc21 (some centres unmarked) | 2.4 to 500 |  | 
COc1ccc2c(c1)C1CC1(C(=O)N1C3CNCC1CN(C)C3)Cn1c-2c(C2CCCCC2)c2ccc(C(=O)NS(=O)(=O)N(C)C)cc21 (centres unmarked) | 2.4 to 500 |  | 
COc1ccc2c(c1)[C@@H]1C[C@]1(C(=O)N1CC3CCC1CN3C)Cn1c-2c(C2CCCCC2)c2ccc(C(=O)NS(=O)(=O)C(C)C)cc21 (some centres unmarked) [drawing 129] |  |  | 2.4 to 500
CCC(C)S(=O)(=O)NC(=O)c1ccc2c(C3CCCCC3)c3n(c2c1)CC1(C(=O)N2C4COCC2CN(C)C4)CC1c1cc(OC)ccc1-3 (centres unmarked) | 2.4 to 500 |  | 
COc1ccc2c(c1)C1CC1(C(=O)N1C[C@@H]3C[C@H]1CN3)Cn1c-2c(C2CCCCC2)c2ccc(C(=O)NS(=O)(=O)C3CC3)cc21 (some centres unmarked) | 2.4 to 500 |  | 
COc1ccc2c(c1)[C@@H]1C[C@]1(C(=O)N1CC3CCC1CN3C)Cn1c-2c(C2CCCCC2)c2ccc(C(=O)NS(=O)(=O)C(C)C)cc21 (some centres unmarked) [drawing 128] |  | 2.4 to 500 | 
